Results as given in paper PMC8769378, “Underlining the Importance of Peripheral Protic Functional Groups to Enhance the Proton Exchange of Gd-Based MRI Contrast Agents” (Inorganic Chemistry, 2021).

Assay: Fit of relaxivity vs pH profiles: proton exchange kinetic and relaxation parameters
Assay type: physicochemical
Details: 0.15 M NaCl, 298 K
Procedure: At pH >3, the r1 values of GdL2 decrease with the increase of pH from 6.6 mM^–1 s^–1 to reach a plateau of 5.1 mM^–1 s^–1 around pH = 7.5. A further increase of the pH results in the slight increase of r1 reaching a maximum around pH = 9.5. Finally, at pH >9.5, another small decrease in r1 is observed. On the other hand, in the case of GdL1, the r1 values are independent from the pH in the range 4.0–7.5, whereas at pH >8.0, r1 increases up to 5.2 mM^–1 s^–1. The r1 values of GdL1 were measured in the pH range 4–10 in order to avoid the hydrolysis of the methyl ester. […] Then, the overall relaxivity, r1, is given by eq 1: [drawing 1] 1 where r1^is, r1^os, and r1^pr are the relaxivity components due to the inner and outersphere water molecules and the −OH group, respectively. r1^pr can be expressed as follows:[26]−[28] [drawing 2] 2
According to the proposed reaction mechanism, the rate of acid-catalyzed proton exchange of GdL2 and Gd(HL2) is vH = kH[H3O^+][GdL2] and vH = kH[H3O^+][Gd(HL2)], where the kH rate constant characterizes the acid-catalyzed proton exchange processes of GdL2 and Gd(HL2) species. Because of the fast internal rearrangement, the alcoholic −OH and −COOH protons cannot be distinguished, and their lifetime is τp = (kH[H^+])^−1 in both cases. The rate of the base-catalyzed exchange between the alcoholic −OH proton of GdL1 and GdL2 and the bulk is vOH = kOH[OH^–][GdL] and τp = (kOH [OH^–])^−1, where the rate constant kOH characterizes the base-catalyzed proton exchange process for GdL1 and GdL2. Both acid- and base-catalyzed exchange mechanisms require the diffusion-controlled formation of an H-bonded complex and subsequently the rapid separation of the corresponding conjugate acid and base.[29] By considering the proposed reaction mechanism, eq 2 can be rewritten as follows: [drawing 3] 3 where αH = KGdLH–1[H^+] + KGdHLKGdLH–1[H^+]^2, ^GdHLr1^is+os, ^GdLr1^is+os, and ^GdLH–1r1^is+os are the sum of r1^is and r1^os for GdHL, GdL, and GdLH–1 species, respectively. Whereas for GdL2 the experimental data (Figure 1) were fitted to eq 3 (Table 2), in the case of GdL1, eq 3 was modified to account for the formation of GdL1 and Gd(L1)H–1 species and the base-catalyzed exchange of the −OH proton. Thus, the first and fourth terms and kH[H^+] of the denominator in the last term in the brackets were not considered.
Proton relaxation measurements (1/T1) and the resulting 1/T1 NMRD profiles were measured on a fast-field cycling (FFC) Stelar SmarTracer relaxometer over a continuum of magnetic field strengths from 0.000 24 to 0.25 T (corresponding to 0.01–10 MHz proton Larmor frequencies). The relaxometer operates under computer control with an absolute uncertainty in 1/T1 of ±1%. […] Furthermore, the real temperature inside the probe head was additionally monitored by a Fluke 52 k/j digital thermometer (Fluke, Zürich, Switzerland). The gadolinium concentration was determined by measuring the bulk magnetic susceptibility shifts of the t-BuOH ^1H NMR signal. Additional data in the 20–120 MHz frequency range were obtained with a high field relaxometer (Stelar) equipped with the HTS-110 3T metrology cryogen-free superconducting magnet. […] The pH-dependent relaxivity measurements of GdL1 and GdL2 complexes were carried out by direct titration of the samples (GdL2, 3.0 < pH < 12.5; GdL1, 4 < pH < 10). The pH was adjusted by the stepwise addition of concentrated NaOH or HCl solution. […]

O=C([O-])CN1CCN(CC(=O)[O-])CCN(CC(O)C(=O)O)CCN(CC(=O)[O-])CC1.[Gd+3] (centres unmarked) [GdL2]
^GdHLr1^is+os (20 MHz): 5.11 ± 0.08 mM^–1 s^–1 | ^GdLH–1r1^is+os (20 MHz): 4.93 ± 0.03 mM^–1 s^–1 | ^GdLr1^is+os (20 MHz): 4.85 ± 0.04 mM^–1 s^–1 | kH × 10^–11 (acid-catalyzed proton exchange): 1.5 ± 0.2 M^–1 s^–1 | kOH × 10^–10 (base-catalyzed proton exchange): 0.17 ± 0.04 M^–1 s^–1
